In ChEMBL document CHEMBL5620343, “Advances in the development of phosphodiesterase 7 inhibitors” (Eur J Med Chem, 2023):
In brackets after ≈: the same amount, converted by molar mass. Values belong to the molecule of their own block, whether it stands above or below them.

Experiments:
[1] = target: T1, Glycogen synthase kinase-3 beta (Homo sapiens, UniProt P49841); assay: Inhibition of GSK-3beta (unknown origin)
Phosphodiesterase 7 [2] = target: T2, Phosphodiesterase 7 (Homo sapiens, UniProt Q13946+Q9NP56); assay: Inhibition of full length PDE7 (unknown origin) using FAM-cAMP as substrate by fluorescence based analysis; format: protein assay
[3] = target: 3',5'-cyclic-AMP phosphodiesterase 7B (Homo sapiens, UniProt Q9NP56); assay: Inhibition of PDE7B (unknown origin) by 3H-cAMP scintillation proximity assay
Chain of 3',5'-cyclic-AMP phosphodiesterase 7B (Q9NP56 whole entry): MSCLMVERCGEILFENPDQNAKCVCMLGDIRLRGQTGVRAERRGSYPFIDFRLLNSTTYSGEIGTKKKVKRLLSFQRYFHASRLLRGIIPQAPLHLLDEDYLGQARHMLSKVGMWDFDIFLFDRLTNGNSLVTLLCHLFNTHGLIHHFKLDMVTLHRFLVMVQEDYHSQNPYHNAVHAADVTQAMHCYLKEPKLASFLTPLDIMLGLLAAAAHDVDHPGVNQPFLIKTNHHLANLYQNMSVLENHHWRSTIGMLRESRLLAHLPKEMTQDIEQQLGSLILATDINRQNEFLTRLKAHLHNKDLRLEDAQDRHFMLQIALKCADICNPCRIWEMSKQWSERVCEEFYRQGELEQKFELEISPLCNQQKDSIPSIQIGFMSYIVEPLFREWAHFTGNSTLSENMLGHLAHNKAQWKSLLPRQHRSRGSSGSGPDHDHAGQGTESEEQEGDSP

[4] = target: 3',5'-cyclic-AMP phosphodiesterase 4B (Homo sapiens, UniProt Q07343); assay: Inhibition of PDE4B1 (unknown origin)
Chain of 3',5'-cyclic-AMP phosphodiesterase 4B (Q07343 whole entry, the tested form may be a part): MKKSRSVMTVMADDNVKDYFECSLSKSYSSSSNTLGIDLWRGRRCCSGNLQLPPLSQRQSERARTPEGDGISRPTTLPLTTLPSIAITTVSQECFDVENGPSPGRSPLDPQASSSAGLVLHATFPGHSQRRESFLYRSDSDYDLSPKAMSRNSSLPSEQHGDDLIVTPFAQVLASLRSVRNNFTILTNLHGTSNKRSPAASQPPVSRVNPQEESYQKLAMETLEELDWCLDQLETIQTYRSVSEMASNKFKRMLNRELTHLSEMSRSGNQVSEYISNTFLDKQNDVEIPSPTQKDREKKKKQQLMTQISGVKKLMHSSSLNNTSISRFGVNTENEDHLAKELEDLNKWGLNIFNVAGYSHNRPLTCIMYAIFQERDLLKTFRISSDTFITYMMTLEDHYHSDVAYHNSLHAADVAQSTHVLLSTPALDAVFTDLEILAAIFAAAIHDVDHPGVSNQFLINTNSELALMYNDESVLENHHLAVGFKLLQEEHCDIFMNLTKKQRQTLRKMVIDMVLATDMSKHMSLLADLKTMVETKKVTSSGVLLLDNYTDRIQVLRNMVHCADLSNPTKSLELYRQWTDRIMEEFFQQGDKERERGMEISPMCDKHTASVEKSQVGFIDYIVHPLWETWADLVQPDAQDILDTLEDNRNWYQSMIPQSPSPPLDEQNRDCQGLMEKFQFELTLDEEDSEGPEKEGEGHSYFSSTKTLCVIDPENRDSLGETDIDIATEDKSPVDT

[5] = target: T3, High affinity 3',5'-cyclic-AMP phosphodiesterase 7A (Homo sapiens, UniProt Q13946); assay: Inhibition of recombinant PDE7A1 (130 to 482 residues) (unknown origin) expressed in Escherichia coli BL21 (DE3) using [3H]cAMP as substrate incubated for 15 mins by liquid scintillation method
T3 sequence (Q13946 whole entry, the tested form may be a part): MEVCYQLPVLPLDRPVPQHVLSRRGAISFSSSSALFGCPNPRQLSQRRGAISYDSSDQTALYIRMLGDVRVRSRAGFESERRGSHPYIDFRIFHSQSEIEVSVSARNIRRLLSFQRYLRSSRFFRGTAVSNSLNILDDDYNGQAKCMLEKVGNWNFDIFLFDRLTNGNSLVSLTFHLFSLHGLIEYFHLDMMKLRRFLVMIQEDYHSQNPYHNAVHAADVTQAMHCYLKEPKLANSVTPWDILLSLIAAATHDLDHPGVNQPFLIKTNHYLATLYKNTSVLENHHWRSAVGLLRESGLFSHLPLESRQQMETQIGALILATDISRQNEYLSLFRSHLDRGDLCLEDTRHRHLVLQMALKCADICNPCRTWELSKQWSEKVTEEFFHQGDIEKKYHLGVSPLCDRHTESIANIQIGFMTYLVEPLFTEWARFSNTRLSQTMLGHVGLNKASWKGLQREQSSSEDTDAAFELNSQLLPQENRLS

Homo sapiens = organism: Homo sapiens; assay: Selectivity index, ratio of IC50 for human PDE4B1 S133D mutant to IC50 for human PDE4D7 S129D mutant
[6] = target: 3',5'-cyclic-AMP phosphodiesterase 4A (Homo sapiens, UniProt P27815); assay: Inhibition of PDE4A1 (unknown origin)
Chain of 3',5'-cyclic-AMP phosphodiesterase 4A (P27815 whole entry): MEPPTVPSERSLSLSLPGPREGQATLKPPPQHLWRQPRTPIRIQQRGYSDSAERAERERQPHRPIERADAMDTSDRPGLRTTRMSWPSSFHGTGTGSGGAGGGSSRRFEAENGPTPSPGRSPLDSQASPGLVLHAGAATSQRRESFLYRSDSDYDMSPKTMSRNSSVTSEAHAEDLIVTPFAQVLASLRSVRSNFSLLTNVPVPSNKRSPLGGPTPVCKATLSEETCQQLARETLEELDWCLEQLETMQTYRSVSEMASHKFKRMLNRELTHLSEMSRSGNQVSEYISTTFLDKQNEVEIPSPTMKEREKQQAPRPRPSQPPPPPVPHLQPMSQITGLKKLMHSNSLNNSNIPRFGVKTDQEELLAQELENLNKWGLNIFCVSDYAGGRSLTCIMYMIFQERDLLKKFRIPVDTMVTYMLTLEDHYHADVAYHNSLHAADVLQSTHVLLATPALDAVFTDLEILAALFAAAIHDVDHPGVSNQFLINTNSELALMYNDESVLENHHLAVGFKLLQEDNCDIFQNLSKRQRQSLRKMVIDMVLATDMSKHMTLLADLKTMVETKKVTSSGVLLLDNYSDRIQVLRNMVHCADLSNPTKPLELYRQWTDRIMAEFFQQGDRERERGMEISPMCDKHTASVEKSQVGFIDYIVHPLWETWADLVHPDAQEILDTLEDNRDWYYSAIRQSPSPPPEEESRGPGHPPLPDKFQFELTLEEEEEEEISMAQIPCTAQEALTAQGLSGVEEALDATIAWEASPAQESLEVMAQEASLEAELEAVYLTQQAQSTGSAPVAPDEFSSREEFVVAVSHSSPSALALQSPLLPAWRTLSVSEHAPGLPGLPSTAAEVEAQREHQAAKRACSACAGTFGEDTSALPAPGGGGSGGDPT

Phosphodiesterase 7 [7] = target: T2, Phosphodiesterase 7; assay: Inhibition of PDE7 (unknown origin) by fluorescent based assay; format: protein assay
[8] = Inhibition of PDE8 (unknown origin) by fluorescent based assay; parameters: species or system Homo sapiens
[9] = target: T3, High affinity 3',5'-cyclic-AMP phosphodiesterase 7A; assay: Inhibition of recombinant PDE7A1 (unknown origin) expressed in Escherichia coli BL21 using [3H]cAMP as substrate preincubated for 15 mins followed by compound addition and measured after 1 hr by liquid scintillation method
[10] = target: 3',5'-cyclic-AMP phosphodiesterase 4D (Homo sapiens, UniProt Q08499); assay: Inhibition of human PDE4D3
Chain of 3',5'-cyclic-AMP phosphodiesterase 4D (Q08499 whole entry): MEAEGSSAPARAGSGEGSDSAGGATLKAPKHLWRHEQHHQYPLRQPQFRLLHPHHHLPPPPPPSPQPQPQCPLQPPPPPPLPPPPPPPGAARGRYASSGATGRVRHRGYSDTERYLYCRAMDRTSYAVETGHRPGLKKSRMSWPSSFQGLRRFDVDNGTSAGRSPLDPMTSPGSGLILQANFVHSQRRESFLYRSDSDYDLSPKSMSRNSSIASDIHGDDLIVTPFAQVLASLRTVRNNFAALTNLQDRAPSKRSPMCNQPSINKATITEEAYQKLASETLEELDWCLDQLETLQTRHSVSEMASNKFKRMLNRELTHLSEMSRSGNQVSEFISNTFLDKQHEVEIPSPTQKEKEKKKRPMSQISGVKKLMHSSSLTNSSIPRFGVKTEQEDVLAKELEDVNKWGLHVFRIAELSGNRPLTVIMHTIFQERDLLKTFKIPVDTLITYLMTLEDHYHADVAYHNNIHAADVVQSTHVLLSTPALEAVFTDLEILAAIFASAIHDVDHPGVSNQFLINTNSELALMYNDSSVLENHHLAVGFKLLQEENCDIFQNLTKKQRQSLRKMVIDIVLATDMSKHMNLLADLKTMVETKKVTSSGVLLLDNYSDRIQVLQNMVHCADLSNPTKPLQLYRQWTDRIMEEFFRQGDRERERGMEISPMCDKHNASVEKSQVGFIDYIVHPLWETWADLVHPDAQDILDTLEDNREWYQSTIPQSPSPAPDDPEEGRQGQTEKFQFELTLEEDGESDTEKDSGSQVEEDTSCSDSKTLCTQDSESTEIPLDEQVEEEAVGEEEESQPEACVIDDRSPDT

[11] = Oral bioavailability in mouse at 2.5 mg/kg; format: ADME, organism-based; settings: in vivo
Phosphodiesterase 4 [12] = target: T4, Phosphodiesterase 4 (Homo sapiens, UniProt P27815+Q08499+Q07343+Q08493); assay: Inhibition of PDE4 (unknown origin) by fluorescent based assay; format: protein assay
[13] = target: T1, Glycogen synthase kinase-3 beta; assay: Inhibition of GSK3beta (unknown origin) activity assessed as […] by ADP-Glo Kinase Assay
Phosphodiesterase 7 [14] = target: T2, Phosphodiesterase 7; assay: Inhibition of recombinant PDE7 (unknown origin) expressed in Escherichia coli BL21 (DE3) using [3H]cAMP as substrate preincubated for 15 mins followed by compound addition and incubated for 1 hr by liquid scintillation method
Phosphodiesterase 4 [15] = target: T4, Phosphodiesterase 4; assay: Inhibition of human recombinant PDE4; format: protein assay
[16] = Aqueous solubility of compound in PBS at pH 6.5; format: physicochemical
Phosphodiesterase 3 = Phosphodiesterase 3 (Homo sapiens, UniProt Q14432+Q13370); assay: Inhibition of human recombinant PDE3 expressed in Escherichia coli
[17] = target: T3, High affinity 3',5'-cyclic-AMP phosphodiesterase 7A; assay: Inhibition of PDE7A (unknown origin)
[18] = Brain to plasma ratio in iv dosed rat measured after 30 mins; format: ADME, organism-based; settings: read-out: BPR
Phosphodiesterase 7 [19] = target: T2, Phosphodiesterase 7; assay: Inhibition of PDE7 (unknown origin); format: protein assay
[20] = Inhibition of human PDE4 catalytic domain expressed in Escherichia coli
[21] = Selectivity index, ratio of IC50 for inhibition of PDE7A1 (130 to 482 residues) (unknown origin) expressed in Escherichia coli BL21 to IC50 for inhibition of recombinant PDE4D2 (86 to 413 residues) (unknown origin) expressed in Escherichia coli BL21
[22] = Half life in rat; format: ADME; settings: in vivo
[23] = Oral bioavailability in rat; format: ADME, organism-based; settings: in vivo

T1 sequence (P49841 whole entry): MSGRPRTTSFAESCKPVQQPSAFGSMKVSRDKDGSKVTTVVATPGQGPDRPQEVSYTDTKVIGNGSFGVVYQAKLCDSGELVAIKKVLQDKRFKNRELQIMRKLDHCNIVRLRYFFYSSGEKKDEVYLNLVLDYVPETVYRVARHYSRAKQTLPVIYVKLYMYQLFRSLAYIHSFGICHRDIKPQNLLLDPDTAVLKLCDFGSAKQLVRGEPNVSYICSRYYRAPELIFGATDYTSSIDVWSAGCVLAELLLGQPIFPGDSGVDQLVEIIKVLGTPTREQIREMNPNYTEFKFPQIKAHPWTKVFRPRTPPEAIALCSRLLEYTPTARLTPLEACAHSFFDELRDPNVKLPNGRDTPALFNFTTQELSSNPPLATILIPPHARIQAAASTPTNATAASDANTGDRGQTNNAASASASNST

SMILES: OCC/N=c1/nc(-c2ccccc2)n(-c2ccccc2)s1
IC50 [1]: 1950 nM

SMILES: CC(C)(C)CSc1nc2ccccc2c(=O)n1-c1ccccc1
IC50 (Phosphodiesterase 7 [2]): 100 nM

SMILES: O=c1c2ccccc2[nH]c(=S)n1-c1ccccc1
IC50 [3]: 8800 nM

SMILES: CCCCc1nc2c(c(=O)n(C)c(=O)n2C)n1CCCC(=O)Nc1cc(C(C)(C)C)ccc1O
IC50 [4]: 543 nM

SMILES: Cc1ccc([N+](=O)[O-])cc1S(=O)(=O)N(C)C
IC50 [3]: 620 nM
Ratio IC50 (Homo sapiens): 238

SMILES: Fc1cc2nc(S)[nH]c(=S)c2cc1F
IC50 (Phosphodiesterase 7 [2]): 74 nM

SMILES: O=C1Nc2c(Cl)cc3nc(CN4CCNCC4)oc3c2C2(CCCCC2)N1
IC50 [9]: < 10 nM

SMILES: c1ccc(-c2n/c(=N/Cc3cccnc3)sn2-c2ccccc2)cc1
IC50 (Phosphodiesterase 7 [7]): 380 nM
IC50 [13]: 1280 nM

SMILES: CSc1nc2c(C)cccc2c(=O)n1-c1c(F)cccc1F
IC50 (Phosphodiesterase 7 [2]): 130 nM
IC50 (Phosphodiesterase 4 [12]): 1400 nM

SMILES: S=c1[nH]c2ccccc2c(=S)n1-c1ccccc1
IC50 (Phosphodiesterase 7 [2]): 550 nM

SMILES: O=C1Nc2c(Cl)cc(-c3ccccc3)cc2C2(CCCCC2)N1
IC50 (Phosphodiesterase 7 [14]): 16 nM
IC50 (Phosphodiesterase 4 [15]): 1420 nM

SMILES: N=c1nc(-c2ccccc2)n(-c2ccccc2)s1
IC50 (Phosphodiesterase 7 [7]): 1020 nM
IC50 [13]: 6300 nM

SMILES: Cn1nc(-c2ccc(Cl)cc2)s/c1=N\c1ccc(F)c(C(=O)O)c1
IC50 [10]: 160 nM
IC50 [9]: 3970 nM
bioavailability [11]: 49.3%

SMILES: Br.c1ccc(-c2n/c(=N/CCC3CCOCC3)sn2-c2ccccc2)cc1
IC50 (Phosphodiesterase 7 [2]): 1590 nM
IC50 (Phosphodiesterase 3): > 10000 nM

SMILES: c1ccc(-c2n/c(=N/CCN3CCOCC3)sn2-c2ccccc2)cc1
IC50 (Phosphodiesterase 7 [7]): 1590 nM
IC50 [13]: 880 nM

SMILES: CC(C)Cn1c(=O)n(C)c(=O)c2nc[nH]c21 [ISOBUTYLMETHYLXANTHINE]
IC50 (Phosphodiesterase 7 [7]): 8100 nM

SMILES: FC(F)(F)c1cc(N2C(=S)Nc3ccccc3C23CCc2ccccc2N3)cc(C(F)(F)F)c1 (stereo not given)
IC50 [9]: < 171 nM

SMILES: CN(C)C(=O)CCN(C)C(=O)c1nc2cc(Cl)c3c(c2o1)C1(CCCCC1)NC(=O)N3
IC50 [9]: < 10 nM

SMILES: O=S1(=O)N=C(O)c2ccccc2N1
IC50 (Phosphodiesterase 7 [2]): 8000 nM

SMILES: O=C1Nc2c(Cl)cccc2C2(CCCCC2)N1
IC50 (Phosphodiesterase 7 [14]): 170 nM

Results, then the molecule that gave them:

IC50 (Phosphodiesterase 7 [2]): 6.1 nM
SMILES: COc1ccc(Cn2c(=O)c3cc(OCC#N)ccc3n(C3CC[S+]([O-])CC3)c2=O)cc1OC (stereo not given)

IC50 (Phosphodiesterase 7 [2]): 1500 nM
SMILES: Cn1nc(-c2ccc(Cl)cc2)s/c1=N\C1CCCCC1

IC50 [5]: 1400 nM
SMILES: CCOc1ccc(-c2c(C(C)(C)O)oc(=O)c3ccccc23)cc1OC1CCCC1

IC50 [5]: 142 nM
IC50 [6]: 112 nM
IC50 [4]: 305 nM
SMILES: CCOC(=O)c1cc2c(=O)n3ccccc3nc2n(C2CCCCC2)/c1=N\C(C)=O

IC50 (Phosphodiesterase 7 [7]): 37 nM
IC50 [8]: 15 nM
SMILES: N#Cc1cc(Cn2c(=O)c3cc(OC(CF)CF)ccc3n(C3CCN(C=O)CC3)c2=O)ccc1-c1ccccc1

IC50 [10]: 88 nM
IC50 [9]: 616 nM
bioavailability [11]: 38.5%
SMILES: Cn1nc(-c2ccc(C(N)=O)cc2)s/c1=N\[C@@H]1CCC[C@@H](O)C1

IC50 (Phosphodiesterase 7 [2]): 1150 nM
SMILES: COc1ccc(/C(CSc2nc3ccccc3c(=O)n2-c2ccccc2)=N\O)cc1

IC50 (Phosphodiesterase 4 [12]): 380 nM
SMILES: O=C(Nc1ccc(N2CCOCC2)cc1)c1cn(Cc2c(F)cccc2F)c2cccnc2c1=O

solubility [16]: 5 µg/mL (≈ 9.68 µM)
SMILES: CCOC(=O)c1sc(Nc2nc(NCc3ccc(S(N)(=O)=O)cc3)c3c(ncn3CC)n2)nc1C

IC50 [17]: 18.6 nM
IC50 (Phosphodiesterase 3): 0.76 nM
Kp at 0.5 h [18]: 1.69
SMILES: COc1ccc(C2=NN(C3CCCC3)C(=O)[C@@H]3CC=CC[C@H]23)cc1Cl

IC50 (Phosphodiesterase 7 [19]): 3.3 nM
IC50 (Phosphodiesterase 4 [12]): 46 nM
SMILES: CCn1c(NC(C)C)nc2c(C3CCN(C(=O)c4cccc(C)n4)C3)csc2c1=O (stereo not given)

IC50 [10]: 61 nM
IC50 [9]: 15300 nM
SMILES: Cn1nc(-c2ccc(C(N)=O)cc2)s/c1=N\C1CCCCC1

IC50 [17]: 0.76 nM
IC50 (Phosphodiesterase 3): 5 nM
SMILES: CCn1ncc2c(NC3CCOCC3)c(-c3nnc(Cc4sc(C)nc4C)o3)cnc21 [GSK-356278]

IC50 [3]: 1700 nM
IC50 [20]: 130 nM
Ratio IC50 [21]: 13
SMILES: CCOc1cc2cc(CO)c(CO)c(-c3ccnc(-n4nc(-c5cccnc5)c5ccccc5c4=O)c3)c2cc1OCC

IC50 (Phosphodiesterase 7 [2]): < 10 nM
IC50 (Phosphodiesterase 4 [12]): 11900 nM
SMILES: COc1cc(CN(Cc2ccc(OC)cc2OC)c2ncnc3c2nnn3C2CC(C(F)(F)F)CCC2(F)F)cc(OC)c1 (stereo not given)

IC50 (Phosphodiesterase 7 [2]): 55 nM
IC50 (Phosphodiesterase 7 [14]): 55 nM
SMILES: O=C1Nc2c(Cl)ccc(OCCO)c2C2(CCCCC2)N1

half-life [22]: 90 min
bioavailability [23]: 27%
IC50 (Phosphodiesterase 7 [14]): 14 nM
IC50 (Phosphodiesterase 4 [15]): 1700 nM
SMILES: CN1CCN(C(=O)c2ccc(-c3cc(Cl)c4c(c3)C3(CCCCC3)NC(=O)N4)cc2)CC1

IC50 [3]: 14 nM
IC50 [20]: 630 nM
Ratio IC50 [21]: 45
SMILES: COc1ccc(-c2cc3c(n2-c2ccc(S(=O)(=O)Nc4nc(C)cc(C)n4)cc2)CCC(N2CCN(C)CC2)C3)cc1C (stereo not given)

IC50 [3]: 23 nM
IC50 [20]: 2.3 nM
Ratio IC50 [21]: 10
SMILES: COc1ccc(C2=NN(C3CCN(C(=O)N4CCOCC4)CC3)C(=O)[C@@H]3CC=CC[C@H]23)cc1Cl

IC50 (Phosphodiesterase 7 [7]): 39 nM
IC50 [8]: 140 nM
SMILES: COc1ccc(Cn2c(=O)c3cc(OC(CF)CF)ccc3n(C3CCN(C=O)CC3)c2=O)cc1OC

IC50 (Phosphodiesterase 7 [2]): 5.5 nM
SMILES: COc1ccc(Cn2c(=O)c3cc(OCC#N)ccc3n(C3CCSCC3)c2=O)cc1OC

IC50 [9]: < 0.15 nM
SMILES: O=C1Nc2c(Cl)ccc(Oc3ccccc3-c3nnn[nH]3)c2C2(CCCCC2)N1

IC50 (Phosphodiesterase 7 [2]): 20 nM
SMILES: COc1cc(-c2nc(NC3CCCC3)c3ccsc3n2)cc(OC)c1OC

IC50 (Phosphodiesterase 7 [7]): 46 nM
SMILES: COc1cc(Cn2c(=O)c3cc(OC(CF)CF)ccc3n(C3CCN(C=O)CC3)c2=O)ccc1OCC(=O)N1CCCCC1
